In series [1] the test system is pooled primary human hepatocyte suspensions. Kind of series: Bayesian (MCMC, invitroTKstats) analysis of hepatic clearance data. The settings on record: Level-4 Bayesian estimate, posterior median; Clint.1 series (Clint.10 all NA).
From the text: Markov Chain Monte Carlo was employed in a Bayesian analysis to estimate uncertainty of the hepatic clearance point measures as previously described, but with some modifications [10]. Briefly, after organizing PFAS-level data into a single file, the relationship between the relevant measurement process parameters was described in a graphic model in JAGS language [13] interfaced through R. For hepatic clearance data, the model describes the PFAS-specific mass spectrometric response factor between analyte peak ratio (to internal standard) and chemical concentration. […] The assumed prior for whether the chemical degraded abiotically in vitro followed a Bernoulli distribution with a 5% chance of abiotic degradation. Separate biotic and abiotic components for chemical elimination were estimated, each with a slope following an assumed uniform prior distribution bounded between the zero and the -log (limit of quantitation/Ctest). In scenarios where an external calibration without internal standard was used, the response factor was calculated using the analyte peak alone, introducing additional uncertainty due to the inability to normalize for recovery issues. The model was analyzed jointly by JAGS using five Markov chains. Convergence was identified by requiring the five chains to be consistent, as indicated by the potential scale reduction factor [14] being less than 1.1. The analysis was performed using EPA-developed R package invitroTKstats, available upon request.
Another series deals with plasma protein. The settings on record: fraction unbound in plasma, input for IVIVE calculations; cited from earlier work.
A short description of series [2]: IVIVE: steady-state concentration (Css), generic HTTK model. The arrangement: species or system human. To be noted: for Css (mg/L) / Css (uM): Assuming 1 mg/kg/day dose rate, BW 70 kg; for CLhep: QL 1500000 uL/min; for Fub: fub=fup/(B:P), Fub set to 1 if needed; for CLint: scaled to whole liver: HPGL 110 mill cells/g, Vl 1596 g. As to the method:
IVIVE was performed as previously described to calculate human steady-state concentrations (Css). Briefly, experimental plasma protein binding data presented elsewhere were transformed to fraction unbound in blood using blood-to-plasma partitioning values. Experimental Clint values generated here are used in conjunction with relevant liver scalars to scale up to estimate whole liver clearance. […] Once Css values were established, these were used with the PFAS-specific in vitro POD data to calculate the administered equivalent doses (AEDs) using reverse dosimetry. […] The fifth-percentile AC50 value was used to define the in vitro POD. All relevant inputs, scalars, and calculations are provided in Supplementary Information, as indicated in the results.

Series [3] concerns pooled primary human hepatocyte suspensions. Briefly: Hepatic clearance assay (substrate depletion, LC-MS). The settings on record: in µL/min/10^6 cells; for CLint for HTTK: CLint value carried into HTTK/IVIVE. How it is done: The rate of hepatic clearance was determined as previously described for a set of PFAS [11]. Analysis was conducted across two laboratories at the Division of Translational Toxicology (DTT) at the National Institute of Environmental Health Sciences (NIEHS) and the Center for Computational Toxicology and Exposure at the USEPA. The PFAS analyzed in each lab can be found in the Supplementary Materials.
The hepatic clearance assay was performed at both the DTT and EPA laboratories as described below. The pooled human hepatocyte suspensions used in this work were purchased commercially and meet the ethical and scientific standards described in the Human Ethics Rule (40 CFR 26). The suspensions were prepared from hepatocytes obtained from de-identified donors by a commercial vendor.
PFAS stock solutions prepared in DMSO were added to prewarmed William’s E medium to make a 2X working stock solution (2 µM). […] The working stock solutions were then transferred to a 96-well polypropylene plate and placed in an incubator at 37 °C with 5% carbon dioxide prior to adding cells. Cryopreserved pooled primary human hepatocyte suspensions (50-donor pool, mixed gender; BioIVT; Westbury, NY, USA) were thawed and transferred to vials containing hepatocyte thawing medium. After centrifuging for 5–10 min at 100× g, thawing medium was removed, being careful not to disturb the cell pellet. The primary human hepatocytes were then resuspended in pre-warmed complete Williams E medium to achieve a cell density of ~1.0 × 10^6 viable cells/mL as determined by Trypan Blue exclusion. Cells were then added to the 96-well incubation plates containing PFAS to achieve a final density of ~0.5 × 10^6 viable cells/mL and a 1 μM assay concentration (Ctest), then placed in incubator on a shaker at 300 rpm. Triplicate samples were removed from the incubator at time points ranging from 0 to 240 min and quenched with a total crash in 2–3 volumes of ice-cold acetonitrile. Samples were spun at 4000× g for 20 min, and supernatants were transferred to new tubes and stored at <−70 °C until analysis. Media-only (no cell) and/or heat-inactivated hepatocytes were included as negative controls for each chemical to evaluate and estimate chemical loss due to nonmetabolic processes (e.g., hydrolysis). Phenacetin was included in all runs as an assay reference compound; EPA also included propranolol as an additional reference compound.
Assay samples were diluted in mobile phase and analyzed using a Thermo Vanquish UPLC system with a Thermo Hypersil Gold aQ C18 column (100 × 2.1 mm, 1.9 […], Thermo Fisher Scientific Inc.) coupled to a Q Exactive Plus mass spectrometer. Gradient elution was used in the chromatographic separations using water with 20 mM ammonium acetate (mobile phase A) and methanol (mobile phase B), with the following gradient program: 0.5–7 min, 30%–90% B; 7–8 min, 90% B; 8–9 min, 90%–30% B; and 9–10 min, 30% B. The first minute of each injection was diverted to waste to avoid introduction of excessive salts from incubation medium. Analysis was detected in negative ion mode. Samples were quantified against an external, matrix-matched calibration curve. Additional methodologic information is available in Table S2.
To perform SPE, a positive-pressure manifold was employed along with Oasis WAX µElution plates and Oasis HLB 30 mg plates (Waters, Milford, MA, USA) for PFAS and positive-control extraction, respectively. […] The sorbent was then washed with 1% formic acid and water. Samples were eluted in 2% ammonia in methanol for analysis. Similarly, HLB plates were conditioned with methanol and water before sample was loaded onto the sorbent. The wells were then washed with 5% methanol in water and water before elution in methanol. For samples not undergoing SPE, the supernatant of the crashed assay sample was diluted in mobile phase prior to analysis. The first 1.5 min of the run was diverted to waste to prevent salt contamination.

The mark [4] stands for this setting: pooled primary human hepatocyte suspensions.

Regarding `O=S(=O)(OCC(F)(F)F)C(F)(F)C(F)(F)C(F)(F)C(F)(F)F`, the Clint.1.Med in series [1] is 0.
`CNS(=O)(=O)C(F)(F)C(F)(F)C(F)(F)C(F)(F)C(F)(F)C(F)(F)C(F)(F)C(F)(F)F`: the Clint.1.Med in series [1] was 48.7.
In the case of `C[N+](C)(C)CCCNS(=O)(=O)C(F)(F)C(F)(F)C(F)(F)C(F)(F)C(F)(F)C(F)(F)C(F)(F)C(F)(F)F`, the Clint.1.Med in series [1] is recorded as 0.
Still for that read-out and setting: the figure for `O=C(O)C(F)(F)C(F)(F)C(F)F` [4H-Perfluorobutanoic_acid] is 0; for `N.O=C(O)C(F)(F)C(F)(F)C(F)(F)C(F)(F)C(F)(F)C(F)(F)C(F)(F)F` [Ammonium_perfluorooctanoate] it is 10.8; for `O=C(O)C(F)(F)C(F)(F)C(F)(F)OC(F)(F)F` [Perfluoro(4-methoxybutanoic)_acid] it is 0.
Still for that read-out and setting: the figure for `O=S(=O)(Cl)C(F)(F)C(F)(F)C(F)(F)C(F)(F)C(F)(F)C(F)(F)C(F)(F)C(F)(F)F` [Perfluoro-1-octanesulfonyl_chloride] is 0.
On the same count and under the same terms, the figure for `O=C(O)C(F)(F)C(F)(F)C(F)(F)OC(F)(C(F)(F)F)C(F)(F)F` [Perfluoro-4-isopropoxybutanoic_acid] is 0; for `O=S(=O)(O)C(F)(F)C(F)(F)C(F)(F)C(F)(F)C(F)(F)C(F)(F)C(F)(F)F` [Perfluoroheptanesulfonic_acid] it is 0; for `O=S(=O)(O)C(F)(F)C(F)(F)C(F)(F)C(F)(F)C(F)(F)C(F)(F)F` [Perfluorohexanesulfonic_acid] it is 0.
Regarding `O=C(O)C(F)(F)C(F)(F)C(F)(F)C(F)(F)C(F)(F)C(F)(F)C(F)(F)C(F)(F)F` [Perfluorononanoic_acid], the Clint.1.Med in series [1] is reported as 10.4.
`O=S(=O)(O)C(F)(F)C(F)(F)C(F)(F)C(F)(F)C(F)(F)C(F)(F)C(F)(F)C(F)(F)F` [Perfluorooctanesulfonate (PFOS-)]: in the series on plasma protein, the Mean fu is 0.0047. In series [2], the “Css (mg/L)” value was determined as 51.35 mg/L, the “Css (uM)” value was found to be 102.71 µM, the “CLhep” value turned out to be 0.000 L/h and the Fub is 0.008545. For the same compound, in series [2], the “CLint” value is 0 µL/min. Moreover, the “CLint for HTTK” value in series [3] is recorded as 0. Besides, in series [3] (setting [4]), the “in vitro CLint exp assay” value is on record as 0.
On to `O=C(O)C(F)(F)C(F)(F)C(F)(F)C(F)(F)C(F)(F)C(F)(F)C(F)(F)F` [Perfluorooctanoic acid (PFOA)], for which the Mean fu with plasma protein was 0.001. Besides, in series [2], the “Css (mg/L)” value amounted to 241.34 mg/L, the “Css (uM)” value came out at 582.99 µM, the “CLhep” value is on record as 0.000 L/h and the Fub worked out at 0.001818. Moreover, in series [2], the “CLint” value stood at 0 µL/min. For the same compound, the “CLint for HTTK” value in series [3] turned out to be 0. For the same compound, the “in vitro CLint exp assay” value in series [3] (setting [4]) is listed as 0.
Consider `O=C(O)C(F)(F)C(F)(F)C(F)(F)C(F)(F)C(F)(F)C(F)(F)C(F)(F)F` [Perfluorooctanoic_acid], for which the Clint.1.Med in series [1] was 0.
For `O=C(O)C(F)(F)C(F)(F)C(F)(F)C(F)(F)F` [Perfluoropentanoic acid (PFPeA)], the Mean fu in the series on plasma protein is recorded as 0.044. In series [2], the “Css (mg/L)” value came out at 5.49 mg/L, the “Css (uM)” value came to 20.78 µM, the “CLhep” value was 0.000 L/h and the Fub was 0.08. Besides, the “CLint” value in series [2] came to 0 µL/min. Besides, the “CLint for HTTK” value in series [3] was found to be 0. Moreover, in series [3] (setting [4]), the “in vitro CLint exp assay” value was determined as 0.
On to `O=C(O)C(F)(F)C(F)(F)C(F)(F)C(F)(F)F` [Perfluoropentanoic_acid], for which the Clint.1.Med in series [1] is 0.
`O=C(O)C(F)(F)C(F)(F)F` [Perfluoropropanoic acid (PFPrA)]: the Mean fu in the series with plasma protein is listed as 0.3108. In series [2], the “Css (mg/L)” value came out at 0.78 mg/L, the “Css (uM)” value amounted to 4.74 µM, the “CLhep” value is 0.000 L/h and the Fub is 0.5651. Also, the “CLint” value in series [2] came to 0 µL/min. For the same compound, the “CLint for HTTK” value in series [3] is listed as 0. Further, in series [3] (setting [4]), the “in vitro CLint exp assay” value amounted to 0.
Turning to `O=C(O)C(F)(F)C(F)(F)F` [Perfluoropropanoic_acid], the Clint.1.Med in series [1] was 0.
In the case of `O=C(O)C(F)(F)C(F)(F)C(F)(F)C(F)(F)C(F)(F)C(F)(F)C(F)(F)C(F)(F)C(F)(F)C(F)(F)C(F)(F)C(F)(F)C(F)(F)F` [Perfluorotetradecanoic acid (PFTeA)], in the series with plasma protein, the Mean fu is reported as 0.0271. Besides, in series [2], the “Css (mg/L)” value is reported as 8.91 mg/L, the “Css (uM)” value came out at 12.47 µM, the “CLhep” value is 0.000 L/h and the Fub is 0.04927. For the same compound, the “CLint” value in series [2] amounted to 0 µL/min. Also, the “CLint for HTTK” value in series [3] is 0. For the same compound, the “in vitro CLint exp assay” value in series [3] (setting [4]) came out at 0.
As for `O=C(O)C(F)(F)C(F)(F)C(F)(F)C(F)(F)C(F)(F)C(F)(F)C(F)(F)C(F)(F)C(F)(F)C(F)(F)C(F)(F)C(F)(F)C(F)(F)F` [Perfluorotetradecanoic acid (PFTeDA)], the Clint.1.Med in series [1] is given as 0.
Take `O=C(O)C(F)(F)C(F)(F)C(F)(F)C(F)(F)C(F)(F)C(F)(F)C(F)(F)C(F)(F)C(F)(F)C(F)(F)C(F)(F)C(F)(F)F` [Perfluorotridecanoic acid]: the Mean fu in the series with plasma protein is 0.0433. In addition, in series [2], the “Css (mg/L)” value turned out to be 5.57 mg/L, the “Css (uM)” value is 8.39 µM, the “CLhep” value amounted to 0.000 L/h and the Fub is recorded as 0.07873. Besides, the “CLint” value in series [2] is reported as 0 µL/min. For the same compound, the “CLint for HTTK” value in series [3] was 0. Also, in series [3] (setting [4]), the “in vitro CLint exp assay” value was determined as 0. In series [3] (unadjusted hepatic intrinsic clearance, pooled primary human hepatocyte suspensions, Table S4), the “Unadj Clint” value is reported as 0.00.
For `O=C(O)C(F)(F)C(F)(F)C(F)(F)C(F)(F)C(F)(F)C(F)(F)C(F)(F)C(F)(F)C(F)(F)C(F)(F)C(F)(F)C(F)(F)F` [Perfluorotridecanoic_acid], the Clint.1.Med in series [1] was 0.
On to `O=S(=O)([O-])C(F)(F)C(F)(F)C(F)(F)C(F)(F)C(F)(F)C(F)(F)C(F)(F)C(F)(F)F.[K+]` [Potassium_perfluorooctanesulfonate], for which the Clint.1.Med in series [1] is recorded as 0.
`O=S(=O)([O-])C(F)(F)C(F)(F)C(F)(F)C(F)(F)C(F)(F)C(F)(F)C(F)(F)C(F)(F)C(F)(F)C(F)(F)F.[Na+]` [Sodium perfluorodecanesulfonate (NaPFDS)]: the Mean fu in the series on plasma protein is 0.0528. For the same compound, in series [2], the “Css (mg/L)” value turned out to be 4.57 mg/L, the “Css (uM)” value was 7.62 µM, the “CLhep” value amounted to 0.000 L/h and the Fub came out at 0.096. Further, the “CLint” value in series [2] came to 0 µL/min. Further, the “CLint for HTTK” value in series [3] is 0. Moreover, the “in vitro CLint exp assay” value in series [3] (setting [4]) worked out at 0.00.
For the compound `O=S(=O)([O-])C(F)(F)C(F)(F)C(F)(F)C(F)(F)C(F)(F)C(F)(F)C(F)(F)C(F)(F)C(F)(F)C(F)(F)F.[Na+]` [Sodium_perfluorodecanesulfonate], the Clint.1.Med in series [1] is 4.87.

The record behind these values is PMC11435625, “In Vitro Hepatic Clearance Evaluations of Per- and Polyfluoroalkyl Substances (PFAS) across Multiple Structural Categories” (Toxics, 2024).
